Experimental data: PubChem BioAssay AID226 (DTP/NCI, 2004)
Where “and” joins values, the source holds several entries; their conditions need not be identical. Equal values may be shown once. Inconclusive results and toxic doses are left out.

Test system: B6C3F1 mice, intracerebral ependymoblastoma, median survival T/C
Assay: NCI In Vivo Anticancer Drug Screen. Data for tumor model Ependymoblastoma (intracerebral) in B6C3F1 mice
Details: endpoint: median survival time, higher = longer survival
Method: The antitumor activity of compounds was measured in mice bearing transplantable tumors. Survival or tumor size were measured and the results are expressed as the measurement made in the treated group (T) divided by the measurement made in the vehicle treated control group (C). The tumor model used in this assay is Ependymoblastoma (intracerebral) in B6C3F1 mice

[1] = dose: 100.0 mg/kg/injection, schedule: Q01DX005 (ip), vehicle: saline with Tween-80
[2] = dose: 50.0 mg/kg/injection, schedule: Q01DX005 (ip), vehicle: Klucel (hydroxypropylcellulose) (HPC)
[3] = dose: 100.0 mg/kg/injection, schedule: Q01DX005 (ip), vehicle: Klucel (hydroxypropylcellulose) (HPC)
[4] = dose: 200.0 mg/kg/injection, schedule: Q01DX005 (ip), vehicle: Klucel (hydroxypropylcellulose) (HPC)

SMILES: CCCCCCC(=O)O[C@H]1CC[C@H]2[C@@H]3CCC4=CC(=O)CC[C@]4(C)[C@H]3CC[C@]12C
- T/C (dose: 8.0 mg/kg/injection, schedule: Q01DX005 (ip), vehicle: Klucel (hydroxypropylcellulose) (HPC)): 101 % of control and 110 % of control
- T/C (dose: 16.0 mg/kg/injection, schedule: Q01DX005 (ip), vehicle: Klucel (hydroxypropylcellulose) (HPC)): 92 % of control and 100 % of control
- T/C (dose: 32.0 mg/kg/injection, schedule: Q01DX005 (ip), vehicle: Klucel (hydroxypropylcellulose) (HPC)): 95 % of control and 110 % of control
- T/C (dose: 64.0 mg/kg/injection, schedule: Q01DX005 (ip), vehicle: Klucel (hydroxypropylcellulose) (HPC)): 108 % of control and 89 % of control
- T/C (dose: 128.0 mg/kg/injection, schedule: Q01DX005 (ip), vehicle: Klucel (hydroxypropylcellulose) (HPC)): 95 % of control and 96 % of control
- T/C (dose: 256.0 mg/kg/injection, schedule: Q01DX005 (ip), vehicle: Klucel (hydroxypropylcellulose) (HPC)): 97 % of control

SMILES: O=[n+]1c2ccccc2n([O-])c2cc(Cl)ccc21
- T/C (dose: 12.5 mg/kg/injection, schedule: Q01DX005 (ip), vehicle: saline with Tween-80): 100 % of control
- T/C (dose: 25.0 mg/kg/injection, schedule: Q01DX005 (ip), vehicle: saline with Tween-80): 106 % of control
- T/C (dose: 50.0 mg/kg/injection, schedule: Q01DX005 (ip), vehicle: saline with Tween-80): 95 % of control
- T/C [1]: 89 % of control

SMILES: CCCCCCC1CC1C(=O)NCCCCCN=C(N)N (configuration not stated)
- T/C (dose: 10.0 mg/kg/injection, schedule: Q01DX005 (ip), vehicle: Klucel (hydroxypropylcellulose) (HPC)): 96 % of control
- T/C (dose: 20.0 mg/kg/injection, schedule: Q01DX005 (ip), vehicle: Klucel (hydroxypropylcellulose) (HPC)): 102 % of control
- T/C (dose: 40.0 mg/kg/injection, schedule: Q01DX005 (ip), vehicle: Klucel (hydroxypropylcellulose) (HPC)): 101 % of control

SMILES: COC12C(COC(N)=O)C3=C(C(=O)C(C)=C(N)C3=O)N1CC1C2N1C (configuration not stated)
- T/C (dose: 2.0 mg/kg/injection, schedule: Q01DX005 (ip), vehicle: Klucel (hydroxypropylcellulose) (HPC)): 105 % of control and 110 % of control
- T/C (dose: 4.0 mg/kg/injection, schedule: Q01DX005 (ip), vehicle: Klucel (hydroxypropylcellulose) (HPC)): 112 % of control and 114 % of control

SMILES: ClC1C(Cl)C(Cl)C(Cl)C(Cl)C1Cl (configuration not stated)
- T/C (dose: 12.5 mg/kg/injection, schedule: Q01DX005 (ip), vehicle: Klucel (hydroxypropylcellulose) (HPC)): 100 % of control
- T/C (dose: 25.0 mg/kg/injection, schedule: Q01DX005 (ip), vehicle: Klucel (hydroxypropylcellulose) (HPC)): 107 % of control and 108 % of control
- T/C [2]: 95 % of control and 102 % of control
- T/C [3]: 117 % of control and 118 % of control
- T/C [4]: 98 % of control and 107 % of control
- T/C (dose: 400.0 mg/kg/injection, schedule: Q01DX005 (ip), vehicle: Klucel (hydroxypropylcellulose) (HPC)): 107 % of control

SMILES: Cc1cc2nc3ccc(N)cc3oc-2cc1=[N+](C)C
- T/C (dose: 6.25 mg/kg/injection, schedule: Q01DX005 (ip), vehicle: saline): 106 % of control
- T/C (dose: 12.5 mg/kg/injection, schedule: Q01DX005 (ip), vehicle: saline): 105 % of control
- T/C (dose: 25.0 mg/kg/injection, schedule: Q01DX005 (ip), vehicle: saline): 102 % of control
- T/C (dose: 50.0 mg/kg/injection, schedule: Q01DX005 (ip), vehicle: saline): 91 % of control

SMILES: OCC1OC(n2cnc3c(SCc4ccccc4)ncnc32)C(O)C1O (configuration not stated)
- T/C (dose: 37.5 mg/kg/injection, schedule: Q01DX005 (ip), vehicle: saline with Tween-80): 97 % of control
- T/C (dose: 75.0 mg/kg/injection, schedule: Q01DX005 (ip), vehicle: saline with Tween-80): 106 % of control
- T/C (dose: 150.0 mg/kg/injection, schedule: Q01DX005 (ip), vehicle: saline with Tween-80): 120 % of control

SMILES: CN1CCC23c4c5ccc(O)c4OC2C(O)C=CC3C1C5 (configuration not stated)
- T/C (dose: 32.0 mg/kg/injection, schedule: Q01DX005 (ip), vehicle: saline): 112 % of control
- T/C (dose: 64.0 mg/kg/injection, schedule: Q01DX005 (ip), vehicle: saline): 101 % of control
- T/C (dose: 128.0 mg/kg/injection, schedule: Q01DX005 (ip), vehicle: saline): 99 % of control

SMILES: CCC(C)Sc1nc(N)nc2c1ncn2C1OC(CO)C(O)C1O (configuration not stated)
- T/C (dose: 37.5 mg/kg/injection, schedule: Q01DX005 (ip), vehicle: Klucel (hydroxypropylcellulose) (HPC)): 97 % of control and 119 % of control
- T/C (dose: 75.0 mg/kg/injection, schedule: Q01DX005 (ip), vehicle: Klucel (hydroxypropylcellulose) (HPC)): 113 % of control and 116 % of control
- T/C (dose: 150.0 mg/kg/injection, schedule: Q01DX005 (ip), vehicle: Klucel (hydroxypropylcellulose) (HPC)): 115 % of control
- T/C (dose: 300.0 mg/kg/injection, schedule: Q01DX005 (ip), vehicle: Klucel (hydroxypropylcellulose) (HPC)): 95 % of control and 113 % of control

SMILES: C1CN1c1nc(N2CC2)nc(N2CC2)n1
- T/C (dose: 0.06 mg/kg/injection, schedule: Q01DX005 (ip), vehicle: saline): 110 % of control
- T/C (dose: 0.13 mg/kg/injection, schedule: Q01DX005 (ip), vehicle: saline): 106 % of control and 119 % of control
- T/C (dose: 0.25 mg/kg/injection, schedule: Q01DX005 (ip), vehicle: saline): 115 % of control and 124 % of control
- T/C (dose: 1.0 mg/kg/injection, schedule: Q01DX005 (ip), vehicle: saline): 189 % of control and 238 % of control

SMILES: COc1cccc2c1C(=O)c1c(O)c3c(c(O)c1C2=O)C[C@@](O)(/C(C)=N/NC(=O)c1ccccc1)C[C@@H]3OC1CC(N)C(O)C(C)O1 (some centres not stated)
- T/C (dose: 2.0 mg/kg/injection, schedule: Q01DX005 (ip), vehicle: saline): 97 % of control
- T/C (dose: 4.0 mg/kg/injection, schedule: Q01DX005 (ip), vehicle: saline): 95 % of control
- T/C (dose: 8.0 mg/kg/injection, schedule: Q01DX005 (ip), vehicle: saline): 98 % of control

SMILES: O=P1(NCCCl)OCCCN1CCCl (configuration not stated)
- T/C (dose: 25.0 mg/kg/injection, schedule: Q01DX001 (ip), vehicle: water): 101 % of control
- T/C (dose: 40.0 mg/kg/injection, schedule: Q01DX001 (ip), vehicle: saline): 102 % of control
- T/C (dose: 50.0 mg/kg/injection, schedule: Q01DX001 (ip), vehicle: water): 104 % of control and 105 % of control
- T/C (dose: 80.0 mg/kg/injection, schedule: Q01DX001 (ip), vehicle: saline): 101 % of control
- T/C (dose: 100.0 mg/kg/injection, schedule: Q01DX001 (ip), vehicle: water): 101 % of control and 113 % of control
- T/C (dose: 160.0 mg/kg/injection, schedule: Q01DX001 (ip), vehicle: saline): 102 % of control
- T/C (dose: 200.0 mg/kg/injection, schedule: Q01DX001 (ip), vehicle: water): 114 % of control and 124 % of control
- T/C (dose: 320.0 mg/kg/injection, schedule: Q01DX001 (ip), vehicle: saline): 105 % of control
- T/C (dose: 400.0 mg/kg/injection, schedule: Q01DX001 (ip), vehicle: water): 119 % of control
- T/C (dose: 640.0 mg/kg/injection, schedule: Q01DX001 (ip), vehicle: saline): 118 % of control

SMILES: CN(CO)c1nc(N(C)CO)nc(N(C)CO)n1
- T/C (dose: 0.78 mg/kg/injection, schedule: Q01DX005 (ip), vehicle: saline with Tween-80): 98 % of control
- T/C (dose: 1.56 mg/kg/injection, schedule: Q01DX005 (ip), vehicle: saline with Tween-80): 100 % of control and 105 % of control
- T/C (dose: 3.12 mg/kg/injection, schedule: Q01DX005 (ip), vehicle: saline with Tween-80): 94 % of control and 105 % of control and 110 % of control
- T/C (dose: 3.12 mg/kg/injection, schedule: Q01DX009 (ip), vehicle: Klucel (hydroxypropylcellulose) (HPC)): 95 % of control and 120 % of control
- T/C (dose: 4.0 mg/kg/injection, schedule: Q01DX005 (ip), vehicle: saline with Tween-80): 98 % of control
- T/C (dose: 6.25 mg/kg/injection, schedule: Q01DX009 (ip), vehicle: Klucel (hydroxypropylcellulose) (HPC)): 96 % of control and 108 % of control and 111 % of control
- T/C (dose: 8.0 mg/kg/injection, schedule: Q01DX005 (ip), vehicle: saline with Tween-80): 89 % of control
- T/C (dose: 12.5 mg/kg/injection, schedule: Q01DX009 (ip), vehicle: Klucel (hydroxypropylcellulose) (HPC)): 93 % of control and 111 % of control
- T/C (dose: 16.0 mg/kg/injection, schedule: Q01DX005 (ip), vehicle: saline with Tween-80): 97 % of control
- T/C (dose: 25.0 mg/kg/injection, schedule: Q01DX009 (ip), vehicle: Klucel (hydroxypropylcellulose) (HPC)): 104 % of control and 114 % of control and 124 % of control
- T/C (dose: 32.0 mg/kg/injection, schedule: Q01DX005 (ip), vehicle: saline with Tween-80): 94 % of control
- T/C (dose: 50.0 mg/kg/injection, schedule: Q01DX009 (ip), vehicle: Klucel (hydroxypropylcellulose) (HPC)): 120 % of control
- T/C (dose: 64.0 mg/kg/injection, schedule: Q01DX005 (ip), vehicle: saline with Tween-80): 95 % of control
- T/C [1]: 119 % of control

SMILES: Cc1nc(N)nc(N)c1-c1ccc(Cl)c(Cl)c1
- T/C (dose: 1.25 mg/kg/injection, schedule: Q01DX005 (ip), vehicle: saline): 106 % of control
- T/C (dose: 2.5 mg/kg/injection, schedule: Q01DX005 (ip), vehicle: saline): 102 % of control
- T/C (dose: 5.0 mg/kg/injection, schedule: Q01DX005 (ip), vehicle: saline): 120 % of control

SMILES: CC(=O)OCC1OC(n2ccc(N)nc2=O)C(OC(C)=O)C1OC(C)=O (configuration not stated)
- T/C [2]: 98 % of control
- T/C [3]: 102 % of control
- T/C [4]: 117 % of control
